The values below come from article PMC9227765 (Viruses, 2022).

One may read the EC50 as the concentration needed to bring the measured effect to its halfway point. Broadly, the Cmax is the highest concentration seen after dosing.

Data set [1] concerns EV-A71 AH08/06 strain. Briefly: CPE protection assay, EV-A71 clinical isolate AH08/06. The settings on record: Enterovirus A, EVA71, Huh-7; EV-A71 AH08/06, Huh7. Type of data set: cell-based.
Data set [2] relates to EV-A71 virus. Description: Viral RNA reduction assay (qRT-PCR) in RD cells. Type of data set: cell-based, enterovirus A71. The settings on record: MOI 0.1, 30 h.p.i.
Data set [3] has as its system EV-A71 virus VP1 protein. Description: Western blot of VP1. Type of data set: cell-based, enterovirus A71. The conditions noted are these: RD cells, 24 h; dose-dependent; EIDD-1931 10 to 0.63 μM, EIDD-2801 100 to 6.3 μM. A general note: In western blotting, separated proteins are transferred to a membrane and probed.
Data set [4] in a line: Cytotoxicity, CellTiter-Glo cell viability, Vero cells. Type of data set: cell-based. The conditions noted are these: African green monkey, read-out: half-cytotoxic concentration (CC50). For orientation: In ATP-based viability assays light output follows the ATP content of the culture.
For data set [5], the system named is EV-A71 virus (H strain). Description: Lethal EV-A71 challenge of 1-day-old ICR suckling mice: survival and body weight. Type of data set: in vivo.
Data set [6] relates to EV-A71 virus VP1 protein. Briefly: Immunofluorescence assay of VP1. Type of data set: cell-based, enterovirus A71. The settings on record: MOI 1, 16 h.p.i.
A short description of data set [7]: Cytotoxicity, CellTiter-Glo cell viability, RD cells. Type of data set: cell-based, Human. The conditions noted are these: human, read-out: half-cytotoxic concentration (CC50).
Data set [8] relates to EV-A71 virus. Briefly: Virus particle yield in supernatant (TCID50). Type of data set: cell-based, enterovirus A71. The conditions noted are these: RD cells, MOI 0.1, supernatant, 30 h.p.i.
In data set [9] the test system is EV-A71 H strain. Briefly: CPE protection assay, EV-A71 H strain (CellTiter-Glo). Type of data set: cell-based. The settings on record: Enterovirus A, 100× TCID50, 72 h.p.i., read-out: EC50 against EV-A71 virus.
Data set [10] deals with EV-A71 H strain. Briefly: Time-of-drug-addition assay (qRT-PCR). Type of data set: cell-based, enterovirus A71. The conditions noted are these: RD cells, 10 μM, MOI 0.01, 30 h.p.i. (In general: Real-time PCR tracks product formation cycle by cycle.)
Data set [11] relates to EV-A71 virus (H strain). Description: Viral RNA loads in tissues of EV-A71-infected suckling mice (qRT-PCR). The settings on record: 200 mg/kg i.p. for 4 consecutive days. Type of data set: in vivo.
For data set [12], the system named is CV-A6 TW-2007-00141 strain. Briefly: CPE protection assay, CV-A6. Type of data set: cell-based, coxsackievirus A6.
The nature of data set [13]: Cytotoxicity, CellTiter-Glo cell viability, Huh7 cells. The settings on record: human, read-out: half-cytotoxic concentration (CC50). Type of data set: cell-based.
For data set [14] the following is noted: in vivo, po, 800 mg; cited from earlier work.
The subject of data set [15] is Vero cells. Description: Cytotoxicity, CellTiter-Glo cell viability, Vero cells. Type of data set: cell-based.
Data set [16] concerns CV-A16 190-D1 strain. Description: CPE protection assay, CV-A16. Type of data set: cell-based, coxsackievirus A16. The settings on record: Enterovirus A, CVA16, CV-A16 190-D1, RD.
Data set [17] concerns RD cells. Briefly: Cytotoxicity, CellTiter-Glo cell viability, RD cells. Type of data set: cell-based, Human.
The subject of data set [18] is CV-B3 Nancy strain. Description: CPE protection assay, CV-B3. Type of data set: cell-based, Coxsackievirus B3. The conditions noted are these: Enterovirus B, CVB3, CV-B3 Nancy, RD.
The subject of data set [19] is EV-D68 STL-2014–12 strain. Briefly: CPE protection assay, EV-D68. Type of data set: cell-based. The settings on record: Enterovirus D, EVD68, EV-D68 STL-2014–12, RD.
Data set [20] relates to Huh7 cells. Description: Cytotoxicity, CellTiter-Glo cell viability, Huh7 cells. Type of data set: cell-based.
In data set [21] the test system is EV-A71. On the set-up: method as in earlier work. The settings on record: cited from earlier work.
Setting [22] is: 66.6 mg/kg (66.67 printed for EIDD-2801) i.p. once a day for 7 days, until 21 d.p.i.
Where [23] appears, read: 200 mg/kg i.p. once a day for 7 days, observed until 21 d.p.i.
Where [24] appears, read: Enterovirus A, CVA6, CV-A6 TW-2007-00141, RD.

Where two headings read alike, the source gives them in different places.

Consider `O=c1[nH]c(=NO)ccn1[C@@H]1O[C@H](CO)[C@@H](O)[C@H]1O` [EIDD-1931, β-D-N^4-hydroxycytidine], for which the EC50 was 2.79 ± 0.89 µM in [1]; 4.43 ± 0.33 µM in data set [9] (EVA71, Huh-7, Huh7 cells); 5.13 ± 0.56 µM in [9] (EVA71, RD cells); 7.04 ± 0.38 µM in [9] (EVA71, Vero cells); 15.7 ± 0.38 µM in data set [12] (CV-A6 TW-2007-00141, RD); under 20 µM in data set [12] (setting [24]). Further, in data set [2], the “replication of viral RNA (qRT-PCR)” value is “inhibited the replication of viral RNA in a dose-dependent manner”. In data set [3], the “expression levels of viral VP1 proteins (Western blot)” value was “significantly attenuated”. Further, the CC50 at 72 h in data set [4] turned out to be 14.1 ± 0.43 µM; in data set [7] it was 80.47 ± 0.02 µM; in data set [13], 34.09 ± 0.06 µM. This molecule also showed a survival protection in data set [5] (22.2 mg/kg i.p. once a day for 7 days, until 21 d.p.i.) of 60%. For the same molecule, the survival entry in data set [5] (setting [22]) and in data set [5] (setting [23]) was “all survived” throughout. For the same molecule, the body weight entry in [5] (66.6 mg/kg i.p. for 7 days, until 21 d.p.i.) is “good weight maintenance and growth”; in data set [5] (200 mg/kg i.p. for 7 days, until 21 d.p.i.) it was “good weight maintenance and growth”. Besides, in data set [5] (low-dose group 7.41 mg/kg i.p. once a day for 7 days), the “time within which the mice died” value is given as at most 12 days. Further, in [6] (10 µM), the “expression of EV-A71 VP1 protein (immunofluorescence)” value is given as “almost completely blocked”. Also, the “propagation of infectious viral particles” value in [8] is “inhibited”. Moreover, the “EV-A71 viral RNA production, drug added at stages III and IV (post-entry)” value in data set [10] is on record as “inhibited”. In addition, the “viral RNA loads in brain, heart, intestine, liver, limb muscle and lung” value in data set [11] is recorded as “significantly reduced”.

In the case of `CC(C)C(=O)OC[C@H]1O[C@@H](n2ccc(NO)nc2=O)[C@H](O)[C@@H]1O` [EIDD-2801, molnupiravir], the EC50 in data set [1] came to 30.3 ± 0.55 µM; in data set [16], 44.9 ± 4.23 µM; in data set [18] it was 87.2 ± 10.8 µM; in data set [9] (EVA71, Huh-7, Huh7 cells), 35.6 ± 0.47 µM; in data set [9] (EVA71, RD cells), 70.1 ± 4.4 µM; in [9] (EVA71, Vero cells), 88.5 ± 3.18 µM. In addition, the EC50 was over 100 µM in [12] (setting [24]) and 86.2 ± 9.17 µM in data set [19]. In [14], the Cmax was 16.1 µM. The “replication of viral RNA (qRT-PCR)” value in [2] is “inhibited the replication of viral RNA in a dose-dependent manner”. Also, the “expression levels of viral VP1 proteins (Western blot)” value in data set [3] is reported as “significantly attenuated”. The CC50 at 72 h in data set [4], in [7] and in [13] was over 100 µM in each case. The “half-cytotoxic concentration (CC50)” value in data set [15], in data set [17] and in [20] was “no significant cytotoxicity” each time. Moreover, the survival is given as 67% in [5] (setting [22]) and 100% in data set [5] (setting [23]). Besides, the “expression of EV-A71 VP1 protein (immunofluorescence)” value in [6] (100 µM) is “partly inhibited”. In data set [8], the “propagation of infectious viral particles” value is given as “inhibited”. Also, the “viral RNA loads in brain, heart, intestine, liver, limb muscle and lung” value in data set [11] was “significantly reduced”.

Consider `C#C[C@@]1(O)[C@H](O)[C@@H](CO)O[C@H]1n1ccc2c(N)ncnc21` [NITD008, 7-Deaza-2′-C-acetylene-adenosine], for which, in [21], the anti-EV-A71 activity entry was “potent anti-EV-A71 activity”.
